TGI and GI50 data for 13 molecules are collected here from PubChem BioAssay (NCI).

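How tested: cells in 96-well plates exposed to compound for 48 hours at five concentrations. Here, GI50 denotes the concentration required for 50% inhibition of growth. TGI denotes the concentration required for complete inhibition of growth.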

Common to all, as to experiment: DTP human tumour cell line panel, 48 h
Assay [1] concerns K-562 leukemia.
In assay [2] the test system is NCI-H226 lung.
Assay [3] deals with SK-MEL-2 melanoma.
Assay [4] deals with T-47D breast.
In assay [5] the test system is M14 melanoma.
Assay [6] concerns NCI/ADR-RES ovarian.
The subject of assay [7] is RPMI-8226 leukemia.
In assay [8] the test system is HT29 colon.
For assay [9], the system named is SF-295 CNS.
For assay [10], the system named is SW-620 colon.

As a reminder, the TGI is the concentration giving total growth inhibition. For orientation: GI50 means the concentration that inhibits growth by half.

For the molecule `COc1ccc2c(c1)NC1(CCN(CCCC(=O)c3ccc(F)cc3)CC1)N=N2`, the TGI was 41 µM in [1]; 95.6 µM in [2]; 39.8 µM in assay [3]; 53.5 µM in [4]; 26.6 µM in [5]; above 100 µM in [6]. Further, the concentration for total growth inhibition (TGI) in [7] is 42.2 µM; in [8], 69.4 µM; in assay [9], 46.3 µM; in assay [10], 57.9 µM.

`COC1=C(C)C(=O)C2=C(C1=O)C1C3CC4=C(C(=O)C(OC)=C(C)C4=O)C(CNC(=O)C(C)O)N3C(C#N)C(C2)N1C` (centres undefined): the TGI in [1] is 1.48 µM; in [2] it was 0.109 µM; in [3], below 0.01 µM; in assay [4] it was below 0.01 µM; in assay [5], 0.0173 µM; in assay [6], 8.72 µM. For the same molecule, the concentration for total growth inhibition (TGI) is below 0.215 µM in [7], below 0.01 µM in assay [8], 0.753 µM in assay [9] and 0.235 µM in assay [10].

Consider `Cc1cc(OCCOCCC(F)(F)P(=O)(O)O)ccc1CCc1cnc2c(N)nc3cc(CCC(=O)O)ccc3c2c1`, for which the GI50 in assay [1], in assay [2], in assay [3], in [4], in assay [5] and in assay [6] was above 100 µM in each case. The GI50 in [7], in assay [8], in [9] and in assay [10] was above 100 µM each time. Also, the concentration for total growth inhibition (TGI) in assay [1], in assay [2], in assay [3], in assay [4], in assay [5] and in assay [6] was above 100 µM in each case. For the same molecule, the TGI in assay [7], in assay [8], in assay [9] and in [10] was above 100 µM throughout.

On to `O=C(O)c1c2c(cc3c1CC1(Cc4cc5c(cc4C1=O)CCC5)C3)CCC2` (centres undefined), for which the total growth inhibition concentration (TGI) in [1], in [2], in assay [3], in assay [4], in assay [5] and in [6] was above 100 µM throughout. Further, the TGI in assay [7], in assay [8], in assay [9] and in [10] was above 100 µM throughout.

As to `NC(=O)CC(N)C(=O)NC(Cc1ccccc1)C(=O)NC(Cc1ccccc1)NC(=O)C(Cc1c[nH]c2ccccc12)C(=O)O` (centres undefined), the TGI in assay [1], in [2], in assay [3], in [4], in assay [5] and in [6] was above 100 µM throughout. Moreover, the TGI in [7], in [8], in [9] and in assay [10] was above 100 µM throughout.

With `O=[N+]([O-])c1cc(F)ccc1S(=O)(=O)c1ccccc1`, the total growth inhibition concentration (TGI) in [1], in assay [2], in assay [3], in [4], in [5] and in assay [6] was above 10 µM throughout. Moreover, the total growth inhibition concentration (TGI) in [7], in assay [8], in [9] and in assay [10] was above 10 µM in each case.

With `CCSc1nc(=S)n(-c2ccccc2)c(C)c1C(C)=O`, the total growth inhibition concentration (TGI) in assay [1], in assay [2], in [3], in assay [4], in assay [5] and in assay [6] was above 100 µM in each case. The TGI in assay [7], in assay [8], in assay [9] and in [10] was above 100 µM throughout.

Turning to `CCOC1NC(=O)Oc2cc3ccccc3cc21` (centres undefined), the TGI in [1], in assay [2], in assay [4], in assay [5], in assay [6] and in assay [7] was above 100 µM throughout. Moreover, the TGI in [8], in assay [9] and in assay [10] was above 100 µM in each case.

For the molecule `CC(C)(C)NC(=O)/C(=C\Sc1ccccc1)c1ccccc1`, the TGI in [1], in assay [2], in assay [3], in assay [4], in assay [5] and in assay [6] was above 100 µM in each case. The TGI in assay [7], in assay [8], in [9] and in assay [10] was above 100 µM each time.

Turning to `S=c1nc(N/N=C/c2cccs2)c2cn[nH]c2[nH]1`, the TGI in assay [1] was above 100 µM; in assay [2], above 100 µM; in [3], above 100 µM; in [4], above 100 µM; in assay [5], above 100 µM; in assay [6] it was 81.7 µM. Also, the concentration for total growth inhibition (TGI) is 62.6 µM in assay [7], above 100 µM in assay [8], 41.4 µM in assay [9] and above 100 µM in assay [10].

For the molecule `COC(=O)c1ccccc1/C=C1\Cc2ccc3c(c2C1=O)CCCC3`, the TGI in assay [1], in [2], in [3], in assay [4], in assay [5] and in assay [6] was above 100 µM each time. Further, the TGI in [7], in [8], in assay [9] and in assay [10] was above 100 µM each time.

Consider `CCCCc1ccc(Nc2nc(Cl)c3ccn(C4CC(Oc5ccc(C)cc5)C(COc5ccc(C)cc5)O4)c3n2)cc1` (centres undefined), for which the TGI in [1], in assay [2], in [3], in assay [4], in assay [5] and in assay [6] was above 46.4 µM in each case. Besides, the concentration for total growth inhibition (TGI) in assay [7], in assay [8], in [9] and in assay [10] was above 46.4 µM throughout.

As for `O=c1[nH]c2nccn2c2c1SCCN2`, the total growth inhibition concentration (TGI) in assay [1], in [2], in [3], in assay [4], in [5] and in assay [6] was above 100 µM in each case. For the same molecule, the TGI in assay [7], in [8], in [9] and in assay [10] was above 100 µM in each case.
